Data published in patent publication US7914478B2, “Intrapelvic perfusion therapy with cancer therapeutic agent and apparatus for intrapelvic perfusion with cancer therapeutic agent” (priority 2002, dated 2011).

Parameters: species or system patients
Details: human, in vivo
Protocol: The intrapelvic perfusion therapy with cancer therapeutic agent of the present invention was carried out as explained below.
The perfusion was continued 30 minutes with keeping the difference between injection and aspiration flow rate was kept 20-25 [ml/min]. After performing this intrapelvic perfusion therapy, the blood of the intrapelvic circulation was dialyzed for 30 min.

SMILES: N.N.[Cl][Pt][Cl] [Cisplatin]
- percentage of drug leading from pelvic to systemic compartment during drug infusion: about 20%
